Measured values published in ChEMBL document CHEMBL5678818, “Discovery of potent SOS1 inhibitors that block RAS activation via disruption of the RAS-SOS1 interaction” (Proc Natl Acad Sci U S A, 2019).

Legend:
[1] = target: Leucine-rich repeat serine/threonine-protein kinase 2 (Homo sapiens) (UniProt Q5S007); experiment: Inhibition of LRRK2 (unknown origin) assessed as residual activity at 1000 nM by KINOMEscan analysis relative to control
[2] = target: Interferon-induced, double-stranded RNA-activated protein kinase (Homo sapiens) (UniProt P19525); experiment: Inhibition of PRKR (unknown origin) assessed as residual activity at 1000 nM by KINOMEscan analysis relative to control
Interferon-induced, double-stranded RNA-activated protein kinase (Homo sapiens), sequence (P19525 whole entry): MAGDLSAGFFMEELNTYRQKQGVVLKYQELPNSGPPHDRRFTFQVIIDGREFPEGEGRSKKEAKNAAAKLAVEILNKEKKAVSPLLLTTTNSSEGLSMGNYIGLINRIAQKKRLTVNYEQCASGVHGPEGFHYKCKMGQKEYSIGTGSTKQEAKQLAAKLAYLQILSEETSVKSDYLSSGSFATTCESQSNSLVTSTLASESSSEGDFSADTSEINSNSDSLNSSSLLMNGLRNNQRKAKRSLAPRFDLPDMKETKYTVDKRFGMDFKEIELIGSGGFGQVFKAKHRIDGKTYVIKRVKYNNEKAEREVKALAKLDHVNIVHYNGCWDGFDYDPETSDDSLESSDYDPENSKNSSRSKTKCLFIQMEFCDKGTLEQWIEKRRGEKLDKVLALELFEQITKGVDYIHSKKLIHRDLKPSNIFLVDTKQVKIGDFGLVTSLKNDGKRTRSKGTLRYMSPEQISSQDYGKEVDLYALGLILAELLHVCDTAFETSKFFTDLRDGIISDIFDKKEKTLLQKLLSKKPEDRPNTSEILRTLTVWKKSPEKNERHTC

[3] = target: Serine/threonine-protein kinase MARK2 (Homo sapiens) (UniProt Q7KZI7); experiment: Inhibition of MARK2 (unknown origin) assessed as residual activity at 1000 nM by KINOMEscan analysis relative to control
Serine/threonine-protein kinase MARK2 (Homo sapiens), sequence (Q7KZI7 whole entry): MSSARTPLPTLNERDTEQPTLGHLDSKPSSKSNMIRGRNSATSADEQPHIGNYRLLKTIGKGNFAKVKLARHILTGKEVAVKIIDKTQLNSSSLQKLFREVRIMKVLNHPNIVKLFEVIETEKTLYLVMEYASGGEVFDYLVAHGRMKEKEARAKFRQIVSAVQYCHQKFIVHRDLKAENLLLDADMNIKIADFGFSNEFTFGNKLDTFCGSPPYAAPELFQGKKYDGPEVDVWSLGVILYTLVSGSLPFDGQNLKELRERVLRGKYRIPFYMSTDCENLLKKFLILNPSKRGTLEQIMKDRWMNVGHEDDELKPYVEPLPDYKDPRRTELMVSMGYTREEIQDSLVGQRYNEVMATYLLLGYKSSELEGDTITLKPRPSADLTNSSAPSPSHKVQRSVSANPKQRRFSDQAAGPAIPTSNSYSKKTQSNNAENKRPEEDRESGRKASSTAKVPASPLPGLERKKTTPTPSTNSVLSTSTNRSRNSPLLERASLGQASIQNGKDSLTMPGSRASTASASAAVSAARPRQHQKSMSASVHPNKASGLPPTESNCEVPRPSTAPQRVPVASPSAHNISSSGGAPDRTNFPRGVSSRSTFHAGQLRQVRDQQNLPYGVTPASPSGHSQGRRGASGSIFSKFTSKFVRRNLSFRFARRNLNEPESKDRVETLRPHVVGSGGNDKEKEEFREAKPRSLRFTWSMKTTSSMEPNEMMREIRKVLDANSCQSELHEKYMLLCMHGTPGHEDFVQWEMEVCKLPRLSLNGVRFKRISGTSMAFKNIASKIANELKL

[4] = target: T1, Serine/threonine-protein kinase ULK2 (Homo sapiens) (UniProt Q8IYT8); experiment: Inhibition of ULK2 (unknown origin) assessed as residual activity at 1000 nM by KINOMEscan analysis relative to control
T1 sequence (whole entry): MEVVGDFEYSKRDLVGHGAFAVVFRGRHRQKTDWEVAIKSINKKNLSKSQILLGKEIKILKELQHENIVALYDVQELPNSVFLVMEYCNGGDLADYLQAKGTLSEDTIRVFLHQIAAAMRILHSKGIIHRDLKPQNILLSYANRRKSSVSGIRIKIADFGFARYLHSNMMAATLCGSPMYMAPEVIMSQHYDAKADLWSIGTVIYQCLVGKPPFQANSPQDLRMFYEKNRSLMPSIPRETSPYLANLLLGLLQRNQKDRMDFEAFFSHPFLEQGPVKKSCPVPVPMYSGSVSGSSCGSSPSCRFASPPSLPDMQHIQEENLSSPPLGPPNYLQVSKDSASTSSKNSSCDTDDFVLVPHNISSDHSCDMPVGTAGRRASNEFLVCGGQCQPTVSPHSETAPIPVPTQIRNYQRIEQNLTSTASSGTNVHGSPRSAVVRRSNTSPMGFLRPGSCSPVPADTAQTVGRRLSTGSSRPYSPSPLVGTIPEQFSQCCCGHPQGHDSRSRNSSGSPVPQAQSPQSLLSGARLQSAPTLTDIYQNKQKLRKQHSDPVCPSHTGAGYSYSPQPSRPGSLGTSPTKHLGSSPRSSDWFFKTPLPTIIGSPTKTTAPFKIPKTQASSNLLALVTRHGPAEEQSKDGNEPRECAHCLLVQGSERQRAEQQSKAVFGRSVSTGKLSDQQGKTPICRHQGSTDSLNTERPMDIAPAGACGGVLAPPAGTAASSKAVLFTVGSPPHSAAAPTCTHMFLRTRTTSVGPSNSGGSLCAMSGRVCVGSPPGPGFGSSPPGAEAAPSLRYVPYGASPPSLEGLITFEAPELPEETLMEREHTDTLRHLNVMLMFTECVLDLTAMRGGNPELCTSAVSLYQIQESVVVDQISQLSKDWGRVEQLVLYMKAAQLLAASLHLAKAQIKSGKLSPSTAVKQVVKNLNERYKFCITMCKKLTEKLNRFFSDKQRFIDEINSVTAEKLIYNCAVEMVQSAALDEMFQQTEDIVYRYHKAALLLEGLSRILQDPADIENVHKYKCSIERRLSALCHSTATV

[5] = target: T2, Ephrin type-A receptor 1 (Homo sapiens) (UniProt P21709); experiment: Inhibition of EPHA1 (unknown origin) assessed as residual activity at 1000 nM by KINOMEscan analysis relative to control
T2 sequence (whole entry): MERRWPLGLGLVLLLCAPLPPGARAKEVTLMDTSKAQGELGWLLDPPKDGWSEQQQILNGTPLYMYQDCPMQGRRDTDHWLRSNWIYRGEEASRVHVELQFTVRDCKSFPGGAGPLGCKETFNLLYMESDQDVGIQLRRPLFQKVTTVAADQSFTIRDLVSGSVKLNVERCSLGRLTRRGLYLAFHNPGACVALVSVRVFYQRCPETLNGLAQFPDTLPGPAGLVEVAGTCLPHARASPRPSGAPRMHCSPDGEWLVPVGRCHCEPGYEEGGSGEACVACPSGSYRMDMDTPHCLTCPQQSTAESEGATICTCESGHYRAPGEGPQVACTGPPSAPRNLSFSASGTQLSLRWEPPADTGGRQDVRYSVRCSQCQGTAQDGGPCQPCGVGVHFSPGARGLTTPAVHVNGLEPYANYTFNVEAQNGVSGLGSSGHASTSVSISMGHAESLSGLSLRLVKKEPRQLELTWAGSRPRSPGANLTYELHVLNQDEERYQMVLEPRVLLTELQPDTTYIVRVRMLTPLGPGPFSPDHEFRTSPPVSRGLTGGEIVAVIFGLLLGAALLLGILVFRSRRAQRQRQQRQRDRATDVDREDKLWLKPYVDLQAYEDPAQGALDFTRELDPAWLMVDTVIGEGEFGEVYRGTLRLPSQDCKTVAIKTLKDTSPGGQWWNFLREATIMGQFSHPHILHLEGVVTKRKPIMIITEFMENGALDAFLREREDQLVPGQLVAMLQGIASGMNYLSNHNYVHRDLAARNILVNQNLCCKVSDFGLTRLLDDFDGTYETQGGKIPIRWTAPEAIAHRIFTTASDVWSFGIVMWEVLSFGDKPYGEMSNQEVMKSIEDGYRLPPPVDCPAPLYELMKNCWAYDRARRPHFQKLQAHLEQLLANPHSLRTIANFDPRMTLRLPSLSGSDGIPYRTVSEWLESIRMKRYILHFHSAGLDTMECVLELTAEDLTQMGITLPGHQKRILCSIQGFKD

[6] = target: Ribosomal protein S6 kinase alpha-2 (Homo sapiens) (UniProt Q15349); experiment: Inhibition of C-terminal RSK3 […] domain 2 (unknown origin) assessed as residual activity at 1000 nM by KINOMEscan analysis relative to control
Ribosomal protein S6 kinase alpha-2 (Homo sapiens), sequence (Q15349 whole entry): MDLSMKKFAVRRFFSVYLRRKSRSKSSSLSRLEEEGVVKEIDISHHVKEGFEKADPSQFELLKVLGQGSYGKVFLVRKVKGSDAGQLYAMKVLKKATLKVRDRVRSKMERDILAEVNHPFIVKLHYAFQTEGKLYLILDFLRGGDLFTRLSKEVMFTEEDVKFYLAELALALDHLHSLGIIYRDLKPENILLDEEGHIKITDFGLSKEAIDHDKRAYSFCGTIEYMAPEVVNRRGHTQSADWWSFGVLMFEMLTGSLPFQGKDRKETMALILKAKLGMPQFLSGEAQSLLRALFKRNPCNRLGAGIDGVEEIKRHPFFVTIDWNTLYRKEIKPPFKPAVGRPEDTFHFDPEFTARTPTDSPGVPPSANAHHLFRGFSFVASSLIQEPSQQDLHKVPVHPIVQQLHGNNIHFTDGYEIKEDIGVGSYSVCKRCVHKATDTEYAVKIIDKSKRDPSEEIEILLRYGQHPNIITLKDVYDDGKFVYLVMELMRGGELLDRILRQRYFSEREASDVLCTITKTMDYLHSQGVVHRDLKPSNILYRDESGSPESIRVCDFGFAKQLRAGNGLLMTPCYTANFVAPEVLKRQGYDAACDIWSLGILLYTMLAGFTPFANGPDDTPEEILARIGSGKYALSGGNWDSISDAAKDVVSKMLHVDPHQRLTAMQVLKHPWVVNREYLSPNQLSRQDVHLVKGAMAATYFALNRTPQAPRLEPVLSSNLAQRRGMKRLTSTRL

Leucine-rich repeat serine/threonine-protein kinase 2 (Homo sapiens), sequence (Q5S007 whole entry): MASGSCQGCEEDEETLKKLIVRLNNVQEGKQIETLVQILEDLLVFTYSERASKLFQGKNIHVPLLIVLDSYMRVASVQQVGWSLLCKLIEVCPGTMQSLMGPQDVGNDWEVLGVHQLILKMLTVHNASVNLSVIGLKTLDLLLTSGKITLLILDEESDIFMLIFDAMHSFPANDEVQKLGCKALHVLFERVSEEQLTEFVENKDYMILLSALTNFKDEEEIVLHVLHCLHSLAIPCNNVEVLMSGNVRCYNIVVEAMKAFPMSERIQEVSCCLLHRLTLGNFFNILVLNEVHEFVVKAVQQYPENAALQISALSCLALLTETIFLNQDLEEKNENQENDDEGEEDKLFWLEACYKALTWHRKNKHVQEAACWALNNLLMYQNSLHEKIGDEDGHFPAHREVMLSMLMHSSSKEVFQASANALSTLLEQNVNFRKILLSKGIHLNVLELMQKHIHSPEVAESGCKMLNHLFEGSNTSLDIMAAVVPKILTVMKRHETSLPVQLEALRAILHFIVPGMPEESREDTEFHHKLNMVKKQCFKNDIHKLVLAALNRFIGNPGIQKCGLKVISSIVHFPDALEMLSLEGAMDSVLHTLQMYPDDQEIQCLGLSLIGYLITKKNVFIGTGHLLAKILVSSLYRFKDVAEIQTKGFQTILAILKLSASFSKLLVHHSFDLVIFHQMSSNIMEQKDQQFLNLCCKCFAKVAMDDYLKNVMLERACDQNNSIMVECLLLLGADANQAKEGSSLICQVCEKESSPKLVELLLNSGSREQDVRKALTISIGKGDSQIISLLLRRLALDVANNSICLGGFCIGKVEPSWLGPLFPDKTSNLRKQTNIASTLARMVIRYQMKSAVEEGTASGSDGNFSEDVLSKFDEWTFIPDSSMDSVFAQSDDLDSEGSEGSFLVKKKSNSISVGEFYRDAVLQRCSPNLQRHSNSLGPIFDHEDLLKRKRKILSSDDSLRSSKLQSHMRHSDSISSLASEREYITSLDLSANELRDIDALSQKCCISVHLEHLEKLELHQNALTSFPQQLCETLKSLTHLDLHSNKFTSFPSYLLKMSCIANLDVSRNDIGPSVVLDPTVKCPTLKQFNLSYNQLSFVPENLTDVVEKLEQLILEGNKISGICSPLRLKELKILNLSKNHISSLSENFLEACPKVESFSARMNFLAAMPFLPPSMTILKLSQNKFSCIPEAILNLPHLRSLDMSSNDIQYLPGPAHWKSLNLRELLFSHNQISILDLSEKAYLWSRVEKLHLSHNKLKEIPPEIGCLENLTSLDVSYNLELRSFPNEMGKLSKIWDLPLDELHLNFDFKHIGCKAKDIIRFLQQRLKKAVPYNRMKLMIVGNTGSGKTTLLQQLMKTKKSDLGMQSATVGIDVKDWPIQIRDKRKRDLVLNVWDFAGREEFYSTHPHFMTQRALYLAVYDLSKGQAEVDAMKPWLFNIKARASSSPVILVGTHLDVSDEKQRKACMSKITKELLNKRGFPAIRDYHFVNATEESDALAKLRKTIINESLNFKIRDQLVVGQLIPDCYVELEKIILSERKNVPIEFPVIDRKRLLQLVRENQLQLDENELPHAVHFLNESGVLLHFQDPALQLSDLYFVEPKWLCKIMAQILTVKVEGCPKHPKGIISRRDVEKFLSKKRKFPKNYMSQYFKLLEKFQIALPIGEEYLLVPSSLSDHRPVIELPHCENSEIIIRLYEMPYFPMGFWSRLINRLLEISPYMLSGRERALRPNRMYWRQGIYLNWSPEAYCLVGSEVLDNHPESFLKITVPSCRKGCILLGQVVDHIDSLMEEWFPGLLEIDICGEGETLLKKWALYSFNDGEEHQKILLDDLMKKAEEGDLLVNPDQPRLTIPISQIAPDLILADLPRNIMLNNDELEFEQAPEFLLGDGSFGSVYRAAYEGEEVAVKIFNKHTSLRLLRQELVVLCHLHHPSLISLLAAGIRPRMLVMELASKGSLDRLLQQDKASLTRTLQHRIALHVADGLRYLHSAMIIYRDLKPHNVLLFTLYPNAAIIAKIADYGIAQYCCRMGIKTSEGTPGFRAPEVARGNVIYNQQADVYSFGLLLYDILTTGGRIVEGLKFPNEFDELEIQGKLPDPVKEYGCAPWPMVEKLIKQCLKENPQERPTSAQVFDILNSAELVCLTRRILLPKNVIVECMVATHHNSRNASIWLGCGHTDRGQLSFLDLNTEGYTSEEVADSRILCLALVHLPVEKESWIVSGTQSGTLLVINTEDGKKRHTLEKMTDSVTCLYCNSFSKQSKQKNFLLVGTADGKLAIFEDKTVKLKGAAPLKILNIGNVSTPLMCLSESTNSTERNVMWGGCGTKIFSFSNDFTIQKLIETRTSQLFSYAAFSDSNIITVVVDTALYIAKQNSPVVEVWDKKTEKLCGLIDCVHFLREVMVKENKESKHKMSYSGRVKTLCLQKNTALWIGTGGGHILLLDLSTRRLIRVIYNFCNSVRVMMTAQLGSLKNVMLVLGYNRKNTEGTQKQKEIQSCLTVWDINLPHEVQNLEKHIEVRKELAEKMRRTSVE

Row | Compound | Activity [1] [%] | Activity [2] [%] | Activity [3] [%] | Activity [4] [%] | Activity [5] [%] | Activity [6] [%]
1 | COc1cc2nc(C)nc(N[C@H](C)c3cccc(-c4cn[nH]c4)c3)c2cc1OC | 94 | 72 | 100 | 60 | 39 | 67
2 | COc1cc2ncnc(N[C@H](C)c3cccc4ccccc34)c2cc1OC | 99 | 92 | 75 | 92 | 100 | 96
